Source: ChEMBL document CHEMBL3997825, “Discovery of 2-oxopiperazine dengue inhibitors by scaffold morphing of a phenotypic high-throughput screening hit” (Bioorg Med Chem Lett, 2017)
Converted amounts (≈) assume the structure as drawn.

What was measured:
dengue virus type 3 [1] = experiment: Antiviral activity against DENV3 MY05-34640 infected in human A549 cells assessed as decrease in envelope protein production after 48 hrs by immunodetection method; format: functional, cell-based; settings: MY05-34640, A549, 48 h
[2] = Cytotoxicity against human HepG2 cells; format: cell-based
dengue virus type 2 [3] = experiment: Antiviral activity against DENV2 MY97-10340 infected in human A549 cells assessed as decrease in envelope protein production after 48 hrs by immunodetection method; format: functional, cell-based; settings: MY97-10340, A549, 48 h
dengue virus type 4 [4] = experiment: Antiviral activity against DENV4 MY01-22713 infected in human A549 cells assessed as decrease in envelope protein production after 48 hrs by immunodetection method; format: functional, cell-based; settings: MY01-22713, A549, 48 h
dengue virus type 1 [5] = experiment: Antiviral activity against DENV1 MY97-10245 infected in human A549 cells assessed as decrease in envelope protein production after 48 hrs by immunodetection method; format: functional, cell-based; settings: MY97-10245, A549, 48 h
[6] = Solubility of the compound at pH 6.8; format: physicochemical; settings: buffer
[7] = Lipophilicity, log D of the compound at pH 7.4; format: physicochemical; settings: buffer
[8] = Intrinsic clearance in human liver microsomes; format: ADME, microsome; settings: read-out: CLH
dengue virus type 1 [9] = experiment: Antiviral activity against DENV1 West Pacific infected in BHK21 cells assessed as reduction in viral titer after 48 hrs by plaque assay; format: functional, cell-based; settings: BHK-21, 48 h
dengue virus type 2 [10] = experiment: Antiviral activity against DENV2 TSVO1 infected in C6/36 cells assessed as reduction in viral titer after 72 hrs by plaque assay; format: functional, cell-based; settings: TSVO1, C6/36, 72 h
dengue virus type 3 [11] = experiment: Antiviral activity against DENV3 H87 infected in BHK21 cells assessed as reduction in viral titer after 72 hrs by plaque assay; format: functional, cell-based; settings: H87, BHK-21, 72 h
dengue virus type 4 [12] = experiment: Antiviral activity against DENV4 H241 infected in BHK21 cells assessed as reduction in viral titer after 72 hrs by plaque assay; format: functional, cell-based; settings: H241, BHK-21, 72 h
dengue virus type 2 [13] = experiment: Antiviral activity against DENV2 New Guinea C infected in human A549 cells assessed as reduction in viral titer after 48 hrs by plaque assay; format: functional, cell-based; settings: Thailand/NGS-C/1944, A549, 48 h

| SMILES | EC50 (dengue virus type 3 [1]) [nM] | EC50 (dengue virus type 2 [3]) [nM] | EC50 (dengue virus type 4 [4]) [nM] | EC50 (dengue virus type 1 [5]) [nM] | solubility [6] [µM] | logD [7] | microsomal CLint [8] [µL/min/mg] | CC50 [2] [µM] | EC50 (dengue virus type 1 [9]) [nM] | EC50 (dengue virus type 2 [10]) [nM] | EC50 (dengue virus type 3 [11]) [nM] | EC50 (dengue virus type 4 [12]) [nM] | EC50 (dengue virus type 2 [13]) [nM] |
| --- | --- | --- | --- | --- | --- | --- | --- | --- | --- | --- | --- | --- | --- |
| O=C(NC1CCCC1)C1CN(c2ccccc2)CC(=O)N1c1ccc2ccsc2c1 (stereo not drawn) | 170 | 1500 | 900 | 2400 | – | – | – | > 50 | – | – | – | – | – |
| O=C(NC1CCCC1)[C@@H]1CN(c2ccc(C(F)(F)F)cc2)CC(=O)N1c1ccc2ccsc2c1 | 30 | 100 | 30 | 70 | < 4 | > 4.5 | 59 | 20 | – | – | – | – | – |
| CSc1cccc(N2C(=O)CN(c3cccnc3)CC2C(=O)NC2CCCC2)c1 (stereo not drawn) | 31000 | > 50000 | 45000 | > 50000 | – | – | – | > 50 | – | – | – | – | – |
| CSc1cccc(N2C(=O)CN(c3cncc(C(F)(F)F)c3)CC2C(=O)NC2CCCC2)c1 (stereo not drawn) | 13000 | > 50000 | 28000 | > 50000 | – | – | – | > 50 | – | – | – | – | – |
| O=C(NC1CCCC1)C1CN(c2ccc(C(F)(F)F)cc2)CC(=O)N1c1ccc2ccoc2c1 (stereo not drawn) | 400 | 1000 | 500 | 800 | – | – | – | 20 | – | – | – | – | – |
| NC(=O)c1cccc(NC(=O)C2CN(c3ccccc3)CC(=O)N2c2ccc3ccsc3c2)c1 (stereo not drawn) | 130 | 1500 | 1900 | 2000 | – | – | – | > 50 | – | – | – | – | – |
| O=C(NC1CCCC1)C1CN(c2cccc(C(F)(F)F)c2)CC(=O)N1c1cccc(OC(F)(F)F)c1 (stereo not drawn) | 400 | 1700 | 700 | 1100 | – | – | – | 8 | – | – | – | – | – |
| CSc1cccc(N2C(=O)CN(c3ccccc3)CC2C(=O)NC2CCCC2)c1 (stereo not drawn) | 800 | 11000 | 2000 | 2000 | – | – | – | > 50 | – | – | – | – | – |
| O=C(NCC1CC1)C1CN(c2ccccc2)CC(=O)N1c1ccc2ccsc2c1 (stereo not drawn) | 200 | 2200 | 600 | 6200 | – | – | – | > 50 | – | – | – | – | – |
| N#Cc1cccc(NC(=O)C2CN(c3ccccc3)CC(=O)N2c2ccc3ccsc3c2)c1 (stereo not drawn) | 90 | 2000 | 1200 | 2800 | – | – | – | > 50 | – | – | – | – | – |
| COc1ccc(-c2csc(NC(=O)c3cc(C(C)(C)C)cc(C(C)(C)C)c3)n2)cc1 | – | – | – | – | – | – | – | – | 1000 to 4100 | 1000 to 4100 | 1000 to 4100 | 1000 to 4100 | 1000 to 4100 |
| CSc1cccc(N(C(=O)c2cc3ccc(C(F)(F)F)cc3[nH]2)[C@H](C)C(=O)NC2CCCC2)c1 | 2500 | 3600 | 2600 | 5300 | – | – | – | 15 | – | – | – | – | – |
| O=C(NC1CCC1)C1CN(c2ccccc2)CC(=O)N1c1ccc2ccsc2c1 (stereo not drawn) | 50 | 1000 | 200 | 1800 | – | – | – | > 50 | – | – | – | – | – |
| COc1cccc(N2CC(=O)N(c3cccc(SC)c3)C(C(=O)NC3CCCC3)C2)c1 (stereo not drawn) | 1600 | 5400 | 2400 | 2900 | – | – | – | > 50 | – | – | – | – | – |
| CSc1cccc(N2C(=O)CN(c3cccc(C#N)c3)CC2C(=O)NC2CCCC2)c1 (stereo not drawn) | 1700 | 7400 | 2500 | 4100 | – | – | – | > 50 | – | – | – | – | – |
| O=C(NC1CCCC1)C1CN(c2ccc(C(F)(F)F)cc2)CC(=O)N1c1ccc2ccsc2c1 (stereo not drawn) | 80 | 300 | 100 | 200 | – | – | – | 10 | – | – | – | – | – |
| O=C(NC1CCCC1)C1CN(c2ccc(C(F)(F)F)cc2)CC(=O)N1c1cnc2ccsc2c1 (stereo not drawn) | 300 | 900 | 400 | 500 | – | – | – | 30 | – | – | – | – | – |
| CC(=O)c1cccc(N2C(=O)CN(c3cccc(C(F)(F)F)c3)CC2C(=O)NC2CCCC2)c1 (stereo not drawn) | 2200 | 10000 | 6300 | 7100 | – | – | – | 40 | – | – | – | – | – |
| O=C(NC1CCCC1)[C@H]1CN(c2ccc(C(F)(F)F)cc2)CC(=O)N1c1ccc2ccsc2c1 | 2600 | 5700 | 2600 | 6900 | – | – | – | 10 | – | – | – | – | – |
| CSc1cncc(N2C(=O)CN(c3cccc(C(F)(F)F)c3)CC2C(=O)NC2CCCC2)c1 (stereo not drawn) | 200 | 1200 | 600 | 400 | 40 (≈ 19.1 µg/mL) | – | – | 26 | – | – | – | – | – |
| CC(F)(F)c1cccc(N2C(=O)CN(c3cccc(C(F)(F)F)c3)CC2C(=O)NC2CCCC2)c1 (stereo not drawn) | 400 | 2200 | 800 | 1900 | – | – | – | 9 | – | – | – | – | – |
| O=C(Nc1cccnc1)C1CN(c2ccccc2)CC(=O)N1c1ccc2ccsc2c1 (stereo not drawn) | 500 | 2700 | 1700 | 5600 | – | – | – | > 50 | – | – | – | – | – |

Second part, led by results:

| EC50 (dengue virus type 3 [1]) [nM] | EC50 (dengue virus type 2 [3]) [nM] | EC50 (dengue virus type 4 [4]) [nM] | EC50 (dengue virus type 1 [5]) [nM] | solubility [6] [µM] | logD [7] | microsomal CLint [8] [µL/min/mg] | SMILES | CC50 [2] [µM] | EC50 (dengue virus type 1 [9]) [nM] | EC50 (dengue virus type 2 [10]) [nM] | EC50 (dengue virus type 3 [11]) [nM] | EC50 (dengue virus type 4 [12]) [nM] | EC50 (dengue virus type 2 [13]) [nM] |
| --- | --- | --- | --- | --- | --- | --- | --- | --- | --- | --- | --- | --- | --- |
| 600 | 5100 | 1500 | 5500 | – | – | – | CSc1cccc(N2C(=O)c3cc4ccc(C(F)(F)F)cc4n3C[C@]2(C)C(=O)NC2CCCC2)c1 | 20 | – | – | – | – | – |
| 3900 | 10000 | 2000 | 5100 | – | – | – | CSc1cccc(NC(=O)c2cc3ccc(C(F)(F)F)cc3n2CC(C)C(=O)NC2CCCC2)c1 (stereo not drawn) | 7.1 | – | – | – | – | – |
| 6500 | 8000 | 5800 | 6100 | – | – | – | CSc1cccc(N2C(=O)CN(c3cc(C(F)(F)F)ccc3C)CC2C(=O)NC2CCCC2)c1 (stereo not drawn) | 10 | – | – | – | – | – |
| 200 | 600 | 200 | 500 | – | – | – | CSc1cccc(N2C(=O)CN(c3ccc(C(F)(F)F)cc3)CC2C(=O)NC2CCCC2)c1 (stereo not drawn) | 10 | – | – | – | – | – |
| 90 | 500 | 420 | 320 | – | – | – | CSc1cccc(N2C(=O)c3ccc(-c4ccco4)n3CC2(C)C(=O)NC2CCCC2)c1 (stereo not drawn) | > 50 | – | – | – | – | – |
| 1300 | 11000 | 2500 | 4000 | – | – | – | CSc1cccc(N2C(=O)CN(c3ccccc3)CC2(C)C(=O)NC2CCCC2)c1 (stereo not drawn) | > 50 | – | – | – | – | – |
| 50 | 200 | 170 | 80 | – | – | – | CSc1cccc(N2C(=O)c3cc4ccc(C(F)(F)F)cc4n3CC2(C)C(=O)NC2CCCC2)c1 (stereo not drawn) | > 50 | – | – | – | – | – |
| 2300 | 3000 | 1500 | 3100 | – | – | – | CSc1cccc(N(CC(=O)NC2CCCC2)C(=O)c2cc3ccc(C(F)(F)F)cc3n2C)c1 | 6.3 | – | – | – | – | – |
| 10 | 90 | 50 | 40 | < 4 | > 4.5 | > 735 | CSc1cccc(N2C(=O)c3cc4ccc(C(F)(F)F)cc4n3C[C@@]2(C)C(=O)NC2CCCC2)c1 | 20 | – | – | – | – | – |
| 2000 | 1700 | 1500 | 2200 | – | – | – | CSc1cccc(N(C(=O)c2cc3ccc(C(F)(F)F)cc3[nH]2)[C@@H](C)C(=O)NC2CCCC2)c1 | 7.1 | – | – | – | – | – |
| 300 | 1000 | 600 | 700 | 4 (≈ 1.91 µg/mL) | – | – | CSc1cccc(N2C(=O)CN(c3cccc(C(F)(F)F)c3)CC2C(=O)NC2CCCC2)c1 (stereo not drawn) | 20 | – | – | – | – | – |
